The source of these data is ChEMBL document CHEMBL1121497, “Studies on cardiovascular agents. 6. Synthesis and coronary vasodilating and antihypertensive activities of 1,2,4-triazolo[1,5-a]pyrimidines fused to heterocyclic systems” (1980).

One assay concerns Rattus norvegicus. Kind of assay: Hypotensive index (HI) measured as the area under the time-hypotensive response curve for 6-h period at 30 mg/kg, po. It counts as functional.
The species entered for assay [1] is Cavia porcellus. Kind of assay: Integrated vasodilating potency (the product of compound-induced maximum percent decrease in the perfusion pressure and the duration of the effect in minutes at 100 ug (ia); Coronary vasoconstricting action). It counts as functional.
Assay [2] is filed under the species Cavia porcellus. Kind of assay: Integrated vasodilating potency is the product of compound-induced maximum percent decrease in the perfusion pressure and the duration of the effect in minutes at 100 ug (ia). It counts as functional.
The species entered for assay [3] is Cavia porcellus. Kind of assay: Integrated vasodilating potency (IVP) (the product of compound-induced maximum percent decrease in the perfusion pressure and the duration of the effect in minutes at 100 ug (ia)). It counts as functional.
For assay [4], the system named is Canis familiaris. Kind of assay: Percent increase in coronary blood flow in anesthetized dogs after intravenous administration at 0.1 mg/kg. It counts as functional, Canis lupus familiaris, Artery.
The test system of assay [5] is Canis familiaris. Kind of assay: Time taken for increase in coronary blood flow in anesthetized dogs after intravenous administration at 1 mg/kg. It counts as functional, Canis lupus familiaris, Blood/Heart.
Assay [6] relates to Canis familiaris. Kind of assay: Time taken for increase in coronary blood flow in anesthetized dogs after intravenous administration at 0.1 mg/kg. It counts as functional, Canis lupus familiaris, Blood/Heart.
For assay [7], the system named is Canis familiaris. Kind of assay: Maximum percent decrease in mean blood pressure in anesthetized dogs after intravenous administration at 0.1 mg/kg. It counts as functional, Canis lupus familiaris.
Assay [8] relates to Canis familiaris. Kind of assay: Percent increase in coronary blood flow in anesthetized dogs after intravenous administration at 0.3 mg/kg. It counts as functional, Canis lupus familiaris, Artery.
Assay [9] relates to Canis familiaris. Kind of assay: Time taken for increase in coronary blood flow in anesthetized dogs after intravenous administration at 0.3 mg/kg. It counts as functional, Canis lupus familiaris, Blood/Heart.
Assay [10] relates to Canis familiaris. Kind of assay: Maximum percent decrease in mean blood pressure in anesthetized dogs after intravenous administration at 0.3 mg/kg. It counts as functional, Canis lupus familiaris.
Assay [11] relates to Canis familiaris. Kind of assay: Percent increase in coronary blood flow in anesthetized dogs after intravenous administration at 1 mg/kg (p<0.05). It counts as functional, Canis lupus familiaris, Artery.
Assay [12] has as its system Canis familiaris. Kind of assay: Increase in coronary blood flow in anesthetized dogs was measured relative to trapidil (1 mg/kg) after intravenous administration of 0.3 mg/kg. It counts as functional, Canis lupus familiaris, Artery.
The subject of assay [13] is Canis familiaris. Kind of assay: Maximum percent decrease in mean blood pressure in anesthetized dogs after intravenous administration at 1 mg/kg. It counts as functional, Canis lupus familiaris.
Assay [14] has as its system Canis familiaris. Kind of assay: Increase in coronary blood flow in anesthetized dogs was measured relative to trapidil (1 mg/kg) after intravenous administration of 1 mg/kg. It counts as functional, Canis lupus familiaris, Artery.
Assay [15] relates to Canis familiaris. Kind of assay: Increase in coronary blood flow in anesthetized dogs was measured relative to trapidil (1 mg/kg) after intravenous administration of 0.1 mg/kg. It counts as functional, Canis lupus familiaris, Artery.

For the compound `Cc1nc2nc(-c3ccccc3)nn2c2c1CCN2C(C)C`, the HI in the assay on Rattus norvegicus was 0. Also, the IVP result in the assay filed under Cavia porcellus [1] is given as “Coronary vasoconstricting action”.

As for `COc1cc(-c2nc3nc(C)c4c(n3n2)N(Cc2ccccc2Cl)CC4)cc(OC)c1OC`, the HI in the assay with Rattus norvegicus amounted to 0. For the same compound, in the assay filed under Cavia porcellus [1], the IVP result is on record as “Coronary vasoconstricting action”.

`COc1ccc(-c2nc3nc(C)c4c(n3n2)N(C(C)C)CC4)cc1`: the HI in the assay on Rattus norvegicus is recorded as 0. Also, in the assay filed under Cavia porcellus [1], the IVP result is listed as “Coronary vasoconstricting action”.

`Cc1nc2ncnn2c2c1CCN2CC(C)O` (stereo not given) returned an HI with Rattus norvegicus of 5. The IVP result in the assay filed under Cavia porcellus [1] was “Coronary vasoconstricting action”.

In turn, `Cc1nc2ncnn2c2c1CCN2CC(O)CO` (stereo not given) had an HI with Rattus norvegicus of 15. The IVP result in the assay listed under Cavia porcellus [1] is “Coronary vasoconstricting action”.

In turn, `CCCCCCCN1CCc2c(C)nc3ncnn3c21` registered an HI with Rattus norvegicus of 30. Further, the IVP in the assay filed under Cavia porcellus [2] was 184.

In turn, `CCCCN1CCc2c(C)nc3nc(-c4ccccc4)nn3c21` showed an HI with Rattus norvegicus of 10. In addition, the IVP result in the assay listed under Cavia porcellus [1] is reported as “Coronary vasoconstricting action”.

`Cc1nc2nc(-c3ccccc3)nn2c2c1CCN2Cc1ccccc1F` registered an HI in the assay with Rattus norvegicus of 8. Besides, the IVP result in the assay filed under Cavia porcellus [1] is recorded as “Coronary vasoconstricting action”.

`Cc1nc2ncnn2c2c1CCN2C(C)CC(C)C` (stereo not given): the HI in the assay on Rattus norvegicus stood at 5. Moreover, the IVP in the assay filed under Cavia porcellus [3] turned out to be 86.

The compound `Cc1nc2ncnn2c2c1CCN2Cc1ccccc1Cl` returned an HI in the assay on Rattus norvegicus of 30. Also, the IVP in the assay filed under Cavia porcellus [3] was 86.

For `COc1ccc(-c2nc3nc(C)c4c(n3n2)N(C(C)(C)C)CC4)cc1`, in the assay on Rattus norvegicus, the HI turned out to be 13. In addition, the IVP entry in the assay filed under Cavia porcellus [1] is on record as “Coronary vasoconstricting action”.

Take `Cc1nc2ncnn2c2c1CCCN2Cc1ccccc1Cl`: the HI in the assay on Rattus norvegicus was determined as 10. The IVP entry in the assay filed under Cavia porcellus [1] was “Coronary vasoconstricting action”.

Take `Cc1nc2nc(-c3ccc(Cl)cc3)nn2c2c1CCN2CCCN1CCCC1`: in the assay with Rattus norvegicus, the HI turned out to be 0. Besides, the IVP entry in the assay filed under Cavia porcellus [1] is listed as “Coronary vasoconstricting action”.

As for `Cc1nc2ncnn2c2c1CCN2CCc1ccccc1`, the HI in the assay with Rattus norvegicus came out at 5. This compound also had an IVP in the assay listed under Cavia porcellus [3] of 100.

For the compound `Cc1nc2ncnn2c2c1CCN2CCCN1CCCCC1`, in the assay with Rattus norvegicus, the HI is given as 45. Besides, the IVP in the assay listed under Cavia porcellus [3] is 5.

For the compound `Cc1nc2ncnn2c2c1CCN2C`, the HI in the assay on Rattus norvegicus is 10. The compound further had an IVP in the assay listed under Cavia porcellus [3] of 50.

Compound `CCCCCN1CCc2c(C)nc3ncnn3c21` gave an HI in the assay with Rattus norvegicus of 6. This compound also gave an IVP in the assay listed under Cavia porcellus [3] of 15.

For `Cc1nc2ncnn2c2c1CCN2c1c(Cl)cccc1Cl`, the HI with Rattus norvegicus came out at 0. The same compound had an IVP in the assay listed under Cavia porcellus [3] of 7.

Take `Cc1nc2nc(-c3ccc(Cl)cc3)nn2c2c1CCN2C(C)C`: the HI with Rattus norvegicus was found to be 0. The IVP result in the assay listed under Cavia porcellus [1] is on record as “Coronary vasoconstricting action”.

Compound `Cc1nc2ncnn2c2c1CCN2C(C)c1ccccc1` (stereo not given) had an HI with Rattus norvegicus of 5. For the same compound, in the assay filed under Cavia porcellus [3], the IVP came to 137.

Compound `Cc1nc2ncnn2c2c1CCN2CC(C)(C)C` returned an HI with Rattus norvegicus of 40. This compound also registered an IVP in the assay listed under Cavia porcellus [3] of 760.

The compound `Cc1nc2ncnn2c2c1CCN2CCC(C)C` gave an HI with Rattus norvegicus of 5. In the assay listed under Cavia porcellus [3], this compound had an IVP of 118.

In the assay with Rattus norvegicus, `Cc1nc2ncnn2c2c1CCN2CCC(=O)c1ccccc1` returned an HI of 17. The IVP in the assay listed under Cavia porcellus [3] was determined as 32.

Consider `Cc1nc2ncnn2c2c1CCN2CCOCCO`, for which the HI with Rattus norvegicus stood at 10. Besides, the IVP in the assay listed under Cavia porcellus [3] was found to be 22.

The compound `Cc1nc2ncnn2c2c1CCN2CCN1CCOCC1` showed an HI in the assay with Rattus norvegicus of 5. This compound also showed an IVP in the assay filed under Cavia porcellus [3] of 16.

For the compound `Cc1nc2ncnn2c2c1CCN2C(C)(C)C` [BUMEPIDIL], the Max with Canis familiaris [4] worked out at 34.7%; with Canis familiaris [8], 132.3%; in the assay with Canis familiaris [11], 219.8%. For the same compound, the values for the Duration in the assay with Canis familiaris [5], with Canis familiaris [6] and in the assay with Canis familiaris [9] were 10.6 min, 4.3 min and 9.3 min, respectively. The compound further gave an HI in the assay with Rattus norvegicus of 181. Besides, the values for the Decrease in the assay with Canis familiaris [7], with Canis familiaris [10] and in the assay on Canis familiaris [13] were -3.3%, -11.7% and -32.3%, respectively. Besides, the IVP in the assay filed under Cavia porcellus [3] was 815. In addition, the Relative potency in the assay with Canis familiaris [12] amounted to 3.8; in the assay on Canis familiaris [14], 8.4; with Canis familiaris [15] it was 0.7.

With `CCCCN1CCc2c(C)nc3ncnn3c21`, the HI in the assay with Rattus norvegicus was 145. This compound also displayed an IVP in the assay listed under Cavia porcellus [3] of 30.

In turn, `Cc1nc2ncnn2c2c1CC(C)N2Cc1ccccc1Cl` (stereo not given) came in with an HI in the assay with Rattus norvegicus of 8. This compound also had an IVP in the assay listed under Cavia porcellus [3] of 80.

`c1ccc(CCN2CCc3c(C4CC4)nc4ncnn4c32)cc1` yielded an HI with Rattus norvegicus of 12. This compound also showed an IVP in the assay listed under Cavia porcellus [3] of 180.

On to `Cc1nc2ncnn2c2c1CCN2CCCN(CCO)CCO`, for which the HI with Rattus norvegicus is reported as 45. Further, in the assay listed under Cavia porcellus [3], the IVP came to 0.

Compound `Cc1nc2nc(-c3ccccc3)nn2c2c1CCN2C(C)(C)C` showed an HI in the assay on Rattus norvegicus of 0. For the same compound, the IVP entry in the assay listed under Cavia porcellus [1] is recorded as “Coronary vasoconstricting action”.

In the assay on Rattus norvegicus, `Cc1nc2nc(-c3ccccc3)nn2c2c1CCN2CCCN1CCCC1` registered an HI of 44. Moreover, the IVP in the assay listed under Cavia porcellus [3] came to 105.

With `Cc1nc2ncnn2c2c1CCN2C1CCCCC1`, the HI with Rattus norvegicus worked out at 12. For the same compound, the IVP in the assay listed under Cavia porcellus [3] turned out to be 65.

On to `Cc1nc2ncnn2c2c1CCN2CCS`, for which the HI with Rattus norvegicus came to 10. The IVP in the assay listed under Cavia porcellus [3] worked out at 285.

Regarding `Cc1nc2ncnn2c2c1CCN2C1CCCCCC1`, the HI in the assay with Rattus norvegicus was determined as 45. Moreover, the IVP in the assay listed under Cavia porcellus [3] was 440.

As to `Cc1nc2ncnn2c2c1CCN2C1CCCCCCC1`, the HI in the assay on Rattus norvegicus came to 15. Further, the IVP entry in the assay listed under Cavia porcellus [1] was “Coronary vasoconstricting action”.

On to `Cc1nc2ncnn2c2c1CCN2CCN1CCCCC1`, for which the HI in the assay with Rattus norvegicus is on record as 10. In the assay listed under Cavia porcellus [3], the IVP came out at 2.

As to `Cc1nc2nc(-c3ccc(Cl)cc3)nn2c2c1CCN2C(C)(C)C`, the HI in the assay on Rattus norvegicus came to 10. In the assay filed under Cavia porcellus [1], the IVP entry is recorded as “Coronary vasoconstricting action”.

Consider `Cc1nc2ncnn2c2c1ccn2CC(C)C`, for which the HI with Rattus norvegicus amounted to 15. The compound further showed an IVP in the assay listed under Cavia porcellus [3] of 38.

For `Cc1nc2ncnn2c2c1CC[N+]2(C)C(C)(C)C.[I-]` (stereo not given), the HI in the assay on Rattus norvegicus turned out to be 0. The same compound gave an IVP in the assay listed under Cavia porcellus [3] of 9.

With `Cc1nc2ncnn2c2c1CCCN2Cc1ccccc1F`, the HI in the assay with Rattus norvegicus is given as 0. The IVP entry in the assay filed under Cavia porcellus [1] is on record as “Coronary vasoconstricting action”.

As for `Cc1nc2ncnn2c2c1CCN2CCCO`, in the assay with Rattus norvegicus, the HI was found to be 105. In the assay listed under Cavia porcellus [3], this compound yielded an IVP of 12.

For the compound `CCCN1CCc2c(C)nc3ncnn3c21`, the HI in the assay on Rattus norvegicus was determined as 15. For the same compound, the IVP in the assay filed under Cavia porcellus [3] is on record as 193.

For the compound `CC(C)(C)CN1CCc2c(C3CC3)nc3ncnn3c21`, the HI in the assay with Rattus norvegicus came out at 20. Further, the IVP in the assay filed under Cavia porcellus [3] is recorded as 50.

On to `COc1cc(C(=O)OCCCN2CCc3c(C)nc4ncnn4c32)cc(OC)c1OC`, for which the HI in the assay on Rattus norvegicus is recorded as 10. The same compound came in with an IVP in the assay filed under Cavia porcellus [3] of 26.

`Cc1nc2ncnn2c2c1CCN2C(C)(C)CO` came in with an HI in the assay on Rattus norvegicus of 75. The same compound yielded an IVP in the assay listed under Cavia porcellus [3] of 38.

In the assay with Rattus norvegicus, `Cc1nc2ncnn2c2c1CCN2CCN1CCN(C)CC1` returned an HI of 10. In the assay listed under Cavia porcellus [3], this compound came in with an IVP of 20.

For `Cc1ccc(CN2CCc3c(C)nc4ncnn4c32)cc1`, in the assay with Rattus norvegicus, the HI amounted to 15. The compound further registered an IVP in the assay listed under Cavia porcellus [3] of 119.

`COc1ccc(-c2nc3nc(C)c4c(n3n2)N(CCCN2CCCC2)CC4)cc1`: in the assay with Rattus norvegicus, the HI is 0. In the assay listed under Cavia porcellus [3], the IVP is listed as 0.
